Laboratory results: the NIST ThermoML archive (doi:10.1021/je060139a)

Key:
[1] = xn = mol fraction of the nth substance listed; details: Wilhelmy plate method
[2] = refractive index (Na D-line) (dimensionless); xn = mol fraction of the nth substance listed; details: 100.5 kPa, Liquid, Standard Abbe refractometry

CCC(=O)OCc1ccccc1 [benzyl propanoate] + CCO
Details	refractive index, 288.15 K	refractive index, 298.18 K	refractive index, 308.15 K	refractive index, 318.15 K	surface tension liquid-gas, 288.15 K [mN/m]	surface tension liquid-gas, 298.18 K [mN/m]	surface tension liquid-gas, 308.15 K [mN/m]	surface tension liquid-gas, 318.15 K [mN/m]
[1], x1 = 0.05	–	–	–	–	24	23.2	22.3	21.34
[1], x1 = 0.1	–	–	–	–	24.8	24	23.1	22.1
[1], x1 = 0.15	–	–	–	–	25.5	24.64	23.7	22.7
[1], x1 = 0.2	–	–	–	–	26.13	25.25	24.3	23.3
[1], x1 = 0.25	–	–	–	–	26.7	25.78	24.82	23.8
[1], x1 = 0.3	–	–	–	–	27.23	26.3	25.32	24.3
[1], x1 = 0.35	–	–	–	–	27.76	26.8	25.8	24.78
[1], x1 = 0.4	–	–	–	–	28.3	27.31	26.3	25.28
[1], x1 = 0.45	–	–	–	–	28.85	27.84	26.82	25.78
[1], x1 = 0.5	–	–	–	–	29.4	28.36	27.33	26.28
[1], x1 = 0.55	–	–	–	–	29.95	28.89	27.85	26.78
[1], x1 = 0.6	–	–	–	–	30.5	29.43	28.37	27.28
[1], x1 = 0.65	–	–	–	–	31.06	29.97	28.88	27.78
[1], x1 = 0.7	–	–	–	–	31.62	30.52	29.4	28.3
[1], x1 = 0.75	–	–	–	–	32.23	31.1	29.96	28.83
[1], x1 = 0.8	–	–	–	–	32.88	31.7	30.55	29.4
[1], x1 = 0.85	–	–	–	–	33.7	32.5	31.3	30.1
[1], x1 = 0.9	–	–	–	–	34.5	33.3	32.1	30.9
[1], x1 = 0.95	–	–	–	–	35.2	34	32.8	31.6
[1], x1 = 1	–	–	–	–	36	34.8	33.6	32.4
[2], x1 = 0.05	1.38108	1.37691	1.37266	1.36853	–	–	–	–
[2], x1 = 0.1	1.39613	1.39185	1.38756	1.38322	–	–	–	–
[2], x1 = 0.15	1.40891	1.40454	1.4002	1.39583	–	–	–	–
[2], x1 = 0.2	1.42001	1.41559	1.41123	1.40687	–	–	–	–
[2], x1 = 0.25	1.42966	1.42524	1.42091	1.41651	–	–	–	–
[2], x1 = 0.3	1.43817	1.43375	1.42944	1.425	–	–	–	–
[2], x1 = 0.35	1.44572	1.44128	1.43696	1.4325	–	–	–	–
[2], x1 = 0.4	1.45248	1.44801	1.4437	1.43922	–	–	–	–
[2], x1 = 0.45	1.45858	1.45408	1.44977	1.44524	–	–	–	–
[2], x1 = 0.5	1.46414	1.45962	1.4553	1.45072	–	–	–	–
[2], x1 = 0.55	1.46918	1.46464	1.46031	1.45569	–	–	–	–
[2], x1 = 0.6	1.47384	1.46929	1.46494	1.46029	–	–	–	–
[2], x1 = 0.65	1.47807	1.47352	1.46917	1.46451	–	–	–	–
[2], x1 = 0.7	1.48193	1.47737	1.47302	1.46833	–	–	–	–
[2], x1 = 0.75	1.48549	1.48092	1.47658	1.47188	–	–	–	–
[2], x1 = 0.8	1.48877	1.48419	1.47986	1.47516	–	–	–	–
[2], x1 = 0.85	1.49183	1.48725	1.48292	1.47824	–	–	–	–
[2], x1 = 0.9	1.49464	1.49006	1.48574	1.48106	–	–	–	–
[2], x1 = 0.95	1.49721	1.49265	1.48834	1.48366	–	–	–	–
[2], x1 = 1	1.4995	1.49498	1.49074	1.48611	–	–	–	–
